Laboratory results as given in paper PMC10661096, “Cryopreservation of assay-ready hepatocyte monolayers by chemically-induced ice nucleation: preservation of hepatic function and hepatotoxicity screening capabilities” (Biomaterials Science, 2023).
“And” between values parts separate entries of the source, which are not always exact repeats. Equal entries are not always repeated.

Experiments:
A549 cells = assay: Post-thaw percentage cell recovery of monolayers in 96 well plates; type: cell-based, Human; conditions: 24 h post-thaw
Description: °C and 150 µL of warm complete cell medium (37 °C) was added. The cells were placed in the incubator for 12 mins, to allow thawing, and the solutions were replaced with 200 µL of warm complete cell medium (37 °C). The cells were placed in the incubator for a further 24 h.
Percentage cell recovery was determined by dissociating cells with trypsin (0.25%) and EDTA (1 mM), staining the cells with trypan blue (to count membrane intact cells) and comparing cell counts immediately before and 24 h after freeze/thaw. A549 cells were cryopreserved using the same approach as confluent monolayers (20k cells/well) and varying cell densities (outlined throughout) as another comparative cell line, using Ham's F-12K (Kaighn's) Medium supplemented with 10% FBS and 1% PSA as the complete growth medium and Ham's F-12K (Kaighn's) Medium alone as the base medium. Cell recovery values were also obtained for plates containing A549 and HepG2 cells stored for over 1 month in a -80 °C freezer.
1.5 Assessing Cellular Health
HepG2 cells (7.5k cell/well) were seeded in collagen (12.7 µg/cm2) coated 96 well plates and A549 cells (7.5k cell/well) were seeded in collagen uncoated 96 well plates. The plates were freeze/thawed as described in section 1.4. […]

[1] = tested on: primary mouse hepatocytes; assay: Post-thaw percentage cell recovery of monolayers in 96 well plates (Trypan Blue counts); type: cell-based; conditions: primary mouse hepatocyte monolayers, 24 h post-thaw
Description: (§1) HepG2 cells (density dependent on assay) and mouse hepatocytes (30k cell per well) were plated on rat tail type I collagen (100 μg mL^−1) coated 96 well plates and incubated for 24 hours. The cryoprotectant solution was prepared in advance. Hornbeam pollen (0.8 g) was suspended in sterile water (10 mL) for 24 h at 4 °C. The solution was sterile filtered and mixed 1 : 1 with either Eagle's minimum essential base medium (HepG2) or Williams E base medium (Mouse hepatocytes) supplemented with 20% FBS and 20% DMSO (final concentration 10%) to produce the cryopreservation formulation. The cell culture medium of the cells was replaced with 100 μL of the prechilled cryopreservation formulation (4 °C) and the plates were placed on a Corning XT CoolSink 96F and in a −80 °C freezer overnight. HepG2 cells and hepatocytes were also cryopreserved with 10% DMSO alone in cell culture medium for comparison. To thaw the cells, 150 μL of warm complete/thawing cell culture medium (37 °C) was added and the plates were placed in the incubator for 12 min. […]
(§2) HepG2 cells were cryopreserved between 1.6–30k cell per well and hepatocytes at a density of 30k cell per well. […] Freeze/Thaw and non-frozen HepG2 cells were counted daily until 80–90% confluency was reached to determine proliferation rates. […]

HepG2 cells [2] = assay: as above; type: cell-based, Human; conditions: −80 °C, 24 h post-thaw, additives supplemented with 10% DMSO
Description: as §1, §2

HepG2 cells [3] = assay: Drug dose–response, resazurin reduction cell viability; type: cell-based; conditions: Homo sapiens, HepG2, 24 h, 24 h treatment
Description: Statistical analysis and data visualization were performed using GraphPad Prism 8 (La Jolla, California, USA). The Shapiro-Wilk test and Levene test were utilized to assess the normality of the data and equality of variances between groups. If the data met the assumptions of normality and equal variance, it was reported as mean ± SEM. Statistical significance between the means of 2 groups were assessed using an unpaired (independent) T-test and for 2+ groups a one-way analysis of variance (ANOVA), followed by Tukey's post hoc analysis, was used. […] Statistical significance between means was determined using Welch's t-test. The significance levels were represented as follows: not significant (ns) for p ≥ 0.05, * for p ≤ 0.05, ** for p ≤ 0.01, and **** for p ≤ 0.0001. Dose–response curves were generated using nonlinear regression with a variable slope (four parameters) fitted by the least squares regression method, without any weighting. GraphPad determined the EC50 values based on the fitting process. […] Fluorescence measurements were recorded with excitation and emission at 530/25 nm and 590/30 using a BioTek Synergy HT microplate reader. Wells with resazurin solution alone were also measured for background subtraction and cells untreated with pharmaceutically active compounds were measured as a maximum resazurin reduction value. […] Cell culture medium was replaced by cell culture media supplemented with acetaminophen (0–92.6 mM), diclofenac (0–3.4 mM), doxorubicin (0–9.2 mM), metformin (0–310 µM), phenformin (0–97.4 µM) and valproic acid (0–50 mM) and […] The cell culture medium was replaced with 100 µL of resazurin solution, prepared by dissolving 1 resazurin tablet (Scientific Laboratory Supplies, Nottingham, UK) in 50 mL of phenol-free DMEM/F-12 medium supplemented with 10% FBS and sterile filtered. The cells were incubated for 2 h in […] Fluorescence measurements were recorded with excitation and emission at 530/25 nm and 590/30 using a BioTek Synergy HT microplate reader. Wells with resazurin solution alone were also measured for background subtraction and cells untreated with pharmaceutically active compounds were measured as a maximum resazurin reduction value. Percentage cell viability was reported using the fluorescence readings using the following equation: Sample Fluorescence − Background Fluorescence x 100 Maximum (Untreated) Fluorescence − Background Fluorescence 1.7 Primary Hepatocyte Cryopreservation Mice were bred at the University of Warwick after local AWERB and Home Office approvals (PP3644080). Hepatocytes were isolated from adult (8- to 12-weeks old) male and female C57BL/6NCrl mice livers, via a two-step perfusion process. After cervical dislocation, the peritoneal cavity was open and a 27G needle was inserted into the vena cava. Perfusion was carried out through the vena cava at a flow rate of 6 mL.min-1 for 10 mins with buffers warmed S11

[4] = tested on: primary mouse hepatocytes; assay: as above; type: cell-based; conditions: Hepatocyte, 24 h, 24 h treatment
Description: Non-frozen and freeze/thaw hepatocytes were treated with diclofenac (0–3.4 μM) and metformin (0–77.4 mM) and placed in a humidified environment at 37 °C and 5% CO2 for 24 h. The cell culture medium was replaced with 100 μL of resazurin solution and the cells were incubated for 2 h in a humidified environment at 37 °C and 5% CO2. Fluorescence measurements were recorded with excitation and emission at 530/25 nm and 590/30 using a BioTek Synergy HT microplate reader. […] Percentage cell viability was reported using the fluorescence readings using the following equation: [drawing 2]
The cell culture medium of freeze/thaw hepatocytes, produced in section 1.7, was replaced by
maintenance medium supplemented with diclofenac (0–3.4 mM) and metformin (0–77 µM)
and placed in a humidified environment at 37 °C and 5% CO2 for 24 h. The cell culture medium
(Scientific Laboratory Supplies, Nottingham, UK) in 50 mL of maintenance medium
supplemented with 10% FBS and sterile filtered. The cells were incubated for 24 h in a
humidified environment at 37 °C and 5% CO2. Fluorescence measurements were recorded with
𝑆𝑎𝑚𝑝𝑙𝑒 𝐹𝑙𝑢𝑜𝑟𝑒𝑠𝑐𝑒𝑛𝑐𝑒 − 𝐵𝑎𝑐𝑘𝑔𝑟𝑜𝑢𝑛𝑑 𝐹𝑙𝑢𝑜𝑟𝑒𝑠𝑐𝑒𝑛𝑐𝑒 x 100
𝑀𝑎𝑥𝑖𝑚𝑢𝑚 (𝑈𝑛𝑡𝑟𝑒𝑎𝑡𝑒𝑑) 𝐹𝑙𝑢𝑜𝑟𝑒𝑠𝑐𝑒𝑛𝑐𝑒 − 𝐵𝑎𝑐𝑘𝑔𝑟𝑜𝑢𝑛𝑑 𝐹𝑙𝑢𝑜𝑟𝑒𝑠𝑐𝑒𝑛𝑐𝑒

HepG2 cells [5] = conditions: cited from earlier work; for Post-thaw cell recovery after preconditioning: HepG2 cells and other cell lines, increased from approximately 10–20% ref 22,23
[6] = Freeze/Thaw HepG2 cells (24 h post-thaw)
[7] = Freeze/Thaw adherent primary mouse hepatocytes
[8] = Non-frozen primary mouse hepatocytes

With `C[S+](C)[O-]` [10% DMSO, dimethyl sulfoxide] the “Post-thaw percentage cell recovery” value (A549 cells) was 29%, the “Post-thaw percentage cell recovery” value [1] was 50% and the “Post-thaw percentage cell recovery” value (HepG2 cells [2]) was 10% and 12.6%.
`CC(=O)Nc1ccc(O)cc1` [Acetaminophen, acetaminophen] gave an EC50 (HepG2 cells [3]; [6]) of 11700 µM and an EC50 (HepG2 cells [3]; Non-frozen HepG2 cells) of 14200 µM.
For `O=C(O)Cc1ccccc1Nc1c(Cl)cccc1Cl` [Diclofenac, diclofenac], the EC50 [4, 7] was 880 µM and the EC50 [4, 8] was 780 µM.
Compound `COc1cccc2c1C(=O)c1c(O)c3c(c(O)c1C2=O)C[C@@](O)(C(=O)CO)C[C@@H]3O[C@H]1C[C@H](N)[C@H](O)[C@H](C)O1` [Doxorubicin, doxorubicin] has an EC50 (HepG2 cells [3]; [6]) of 16.3 µM and an EC50 (HepG2 cells [3]; Non-frozen HepG2 cells) of 2 µM.
Compound `CN(C)C(=N)N=C(N)N` [Metformin, metformin] has an EC50 [4, 7] of 600 µM, an EC50 [4, 8] of 780 µM and an EC50 (HepG2 cells [3]; [6]) of 4280 µM. The EC50 (HepG2 cells [3]; Non-frozen HepG2 cells) was 3780 µM.
`[H]/N=C(/N)N/C(=N/[H])NCCc1ccccc1` [Phenformin, phenformin] showed an EC50 (HepG2 cells [3]; [6]) of 290 µM and an EC50 (HepG2 cells [3]; Non-frozen HepG2 cells) of 330 µM.
`CCCC(CCC)C(=O)O` [VPA, valproic acid] gave an EC50 (HepG2 cells [3]; [6]) of 1790 µM and an EC50 (HepG2 cells [3]; Non-frozen HepG2 cells) of 2880 µM.
For `CC(C)CCC[C@@H](C)[C@H]1CC[C@H]2[C@@H]3CC=C4C[C@@H](O)CC[C@]4(C)[C@H]3CC[C@]12C.O` [cholesterol monohydrate], the “Post-thaw percentage cell recovery” value (HepG2 cells [2]) was roughly 60%.
In the case of `O=C(O)[C@@H]1CCCN1` [proline], the “Post-thaw cell recovery after preconditioning” value (HepG2 cells [5]) is given as 50%.
For `OC[C@H]1O[C@H](O[C@H]2O[C@H](CO)[C@@H](O)[C@H](O)[C@H]2O)[C@H](O)[C@@H](O)[C@@H]1O` [trehalose], the “Post-thaw cell recovery after preconditioning” value (HepG2 cells [5]) is listed as 50% and the “Cell recovery after preconditioning with trehalose” value (HepG2 cells [5]; HepG2 monolayers ref 23) is listed as 42%.
